# From patent US20260337153A1, “IONIZABLE AMINE LIPIDS” (Intellia Therapeutics, Inc., priority 2023, published 2026)
# Tested on: rat TTR gene
# Assay: In vivo editing of TTR in rat liver after LNP delivery (NGS, % editing)
# Design: species or system rat (Sprague-Dawley)
# Conditions: for Mean % editing in rat liver: NGS, dose 0.03 mpk, LNP with G000534 sgRNA and Cas9 mRNA 1:2 w/w, 3% C13 Ether (Compound 53: 3% PEG2K-DMG), N=5 (Compound 33: N=4)
# How it was run: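 Four-component LNPs (ionizable amine lipid, DSPC, cholesterol, PEG lipid) carried Cas9 mRNA and a chemically modified sgRNA against rat TTR, made by impinging jet mixing at an N:P near 6. They were injected into the lateral tail vein of female Sprague-Dawley rats. Liver genomic DNA collected at 6 or 7 days was amplicon-sequenced on Illumina MiSeq to calculate percent indels.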
# [1] = Experiment 7, 0.1 mpk, LNP with PEG2K-DMG
# [2] = Experiment 10, 0.1 mpk, LNP with PEG2K-DMG
# [3] = Experiment 11, 0.1 mpk, LNP with PEG2K-DMG
# [4] = Experiment 13, 0.03 mpk, LNP with PEG2K-DMG
# [5] = Table 8, 0.03 mpk, LNP with C13 Ether
# [6] = Experiment 1, 0.1 mpk, LNP with PEG2K-DMG
# [7] = Experiment 2, 0.1 mpk, LNP with PEG2K-DMG
# [8] = Experiment 3, 0.1 mpk, LNP with PEG2K-DMG
# [9] = Table 6, 0.03 mpk, PEG lipid C13 Ether
# [10] = Table 6, 0.03 mpk, PEG lipid C14 Ether
# [11] = Table 6, 0.03 mpk, PEG lipid PEG2K-DMG
smiles,measurement,setting,value
"CCCCCCCCOC(CCC(=O)OCC(COC(=O)NCCN(CC)CC)COC(=O)C(CCCC)CCCCCC)OCCCCCCCC (stereo not drawn) [Compound 48, 3-((4,4-bis(octyloxy)butanoyl)oxy)-2-((((2-(diethylamino)ethyl)carbamoyl)oxy)methyl)propyl 2-butyloctanoate]",Mean % editing,[1],55.0%
"CCCCC/C=C\C/C=C\CCCCCCCC(=O)OCC(COC(=O)CCCC(=O)OC(CCCCCCCC)CCCCCCCC)COC(=O)N(C)CCN(CC)CC (stereo not drawn) [Compound 49, 3-(((2-(diethylamino)ethyl)(methyl)carbamoyl)oxy)-2-((((9Z,12Z)-octadeca-9,12-dienoyl)oxy)methyl)propyl heptadecan-9-yl Glutarate]",Mean % editing,[2],47.1%
"CCCCC/C=C\C/C=C\CCCCCCCC(=O)OCC(COC(=O)CCCC(=O)OC(CCCCCCCC)CCCCCCCC)COC(=O)NCCN1CCCCCC1 (stereo not drawn) [Compound 50, 3-(((2-(azepan-1-yl)ethyl)carbamoyl)oxy)-2-((((9Z,12Z)-octadeca-9,12-dienoyl)oxy)methyl)propyl heptadecan-9-yl Glutarate]",Mean % editing,[2],53.1%
"CCCCCCCCC(CCCCCCCC)OC(=O)CCCCCC(=O)OCC(CCCCCCCCC(=O)OCC(CCCC)CCCCCC)COC(=O)NCCN(CC)CC (stereo not drawn) [Compound 51, 1-(11-((2-butyloctyl)oxy)-2-((((2-(diethylamino)ethyl)carbamoyl)oxy)methyl)-11-oxoundecyl) 7-(heptadecan-9-yl) heptanedioate]",Mean % editing,[3],60.0%
"CCCCCCCCC(CCCCCCCC)OC(=O)CCCCCCC(=O)OCC(COC(=O)CCCCCCC(=O)OC(CCCCCCCC)CCCCCCCC)COC(=O)NCCN(CC)CC [Compound 52, O′1,O1-(2-((((2-(diethylamino)ethyl)carbamoyl)oxy)methyl)propane-1,3-diyl) 8,8′-di(heptadecan-9-yl) di(octanedioate)]",Mean % editing,[4],9.0%
same,Mean % editing in rat liver,,11.9%
same,Mean % editing,[5],7.0%
CCCCC/C=C\C/C=C\CCCCCCCC(=O)OCC(COC(=O)CCC(OCCCCCCCC)OCCCCCCCC)COC(=O)OCCCN(CC)CC (stereo not drawn) [Compound 53],Mean % editing,[6],38.6%
same,Mean % editing,[7],55.2%
same,Mean % editing,[8],41.4%
same,Mean % editing,"Experiment 4, 0.1 mpk, LNP with PEG2K-DMG",41.8%
same,Mean % editing,"Experiment 5, 0.1 mpk, LNP with PEG2K-DMG",42.8%
same,Mean % editing,"Experiment 6, 0.1 mpk, LNP with PEG2K-DMG",47.1%
same,Mean % editing,[1],31.5%
same,Mean % editing,"Experiment 8, 0.1 mpk, LNP with PEG2K-DMG",47.8%
same,Mean % editing,"Experiment 9, 0.1 mpk, LNP with PEG2K-DMG",42.6%
same,Mean % editing,[2],44.2%
same,Mean % editing,[3],42.0%
same,Mean % editing,[4],8.5%
same,Mean % editing in rat liver,,9.9%
same,Mean % editing,[9],7.5%
same,Mean % editing,[10],4.2%
same,Mean % editing,[11],9.6%
CCCCC/C=C\C/C=C\CCCCCCCC(=O)OCC(COC(=O)CCC(OCCCCCCCC)OCCCCCCCC)COC(=O)NCCN(CC)CC (stereo not drawn) [Compound 54],Mean % editing,[6],36.9%
CCCCCCCCCOC(=O)CCCCCCCN(CCO)CCCCCCCC(=O)OC(CCCCCCCC)CCCCCCCC [Compound 55],Mean % editing,[3],13.2%
CCCCC/C=C\C/C=C\CCCCCCCC(=O)OCC(COC(=O)CCCC(=O)OC(CCCCCCCC)CCCCCCCC)COC(=O)OCCCN(CC)CC (stereo not drawn) [Compound 56],Mean % editing,[7],50.9%
same,Mean % editing,[2],53.0%
CCCCC/C=C\C/C=C\CCCCCCCC(=O)OCC(COC(=O)CCCCCC(=O)OC(CCCCCCCC)CCCCCCCC)COC(=O)OCCCN(CC)CC (stereo not drawn) [Compound 57],Mean % editing,[7],46.7%
same,Mean % editing,[8],39.5%
CCCCC/C=C\C/C=C\CCCCCCCC(=O)OCC(COC(=O)CCCC(=O)OC(CCCCCCCC)CCCCCCCC)COC(=O)NCCN(CC)CC (stereo not drawn) [Compound 58],Mean % editing,[6],44.7%
same,Mean % editing,[7],60.4%
same,Mean % editing,[2],56.5%
CCCCC/C=C\C/C=C\CCCCCCCC(=O)OCC(COC(=O)CCCCCC(=O)OC(CCCCCCCC)CCCCCCCC)COC(=O)NCCN(CC)CC (stereo not drawn) [Compound 59],Mean % editing,[6],36.7%
same,Mean % editing,[7],53.4%
CCCCCCCCC(CCCCCCCC)OC(=O)CCCCCCC(=O)OCC(COC(=O)CCCCCCC(=O)OC(CCCCCCCC)CCCCCCCC)COC(=O)OCCCN(CC)CC [Compound 60],Mean % editing,[4],8.1%
same,Mean % editing,[9],10.1%
same,Mean % editing,[10],6.4%
same,Mean % editing,[11],12.0%
CCCCCCCCC(CCCCCCCC)OC(=O)CCCCCCC(=O)OCC(COC(=O)CCCCCCC(=O)OC(CCCCCCCC)CCCCCCCC)COC(=O)NCCCN(CC)CC [Compound 61],Mean % editing,[4],0.2%
"CCCCCCCCC(CCCCCCCC)CC(=O)OCCC(=O)OCC(COC(=O)CCCC(=O)OC(CCCCCCCC)CCCCCCCC)COC(=O)NCCN(CC)CC (stereo not drawn) [Compound 63, 3-(((2-(diethylamino)ethyl)carbamoyl)oxy)-2-(((3-((3-octylundecanoyl)oxy)propanoyl)oxy)methyl)propyl heptadecan-9-yl Glutarate]",Mean % editing,[5],0.1%
"CCCCCCCCC(CCCCCCCC)OC(=O)CCCCCC(=O)OCC(COC(=O)CCCCCC(=O)OC(CCCCCCCC)CCCCCCCC)COC(=O)OCCCN1CCCC1 [Compound 64, 7,7′-di(heptadecan-9-yl) O′1,O1-(2-((((3-(pyrrolidin-1-yl)propoxy)carbonyl)oxy)methyl)propane-1,3-diyl) di(heptanedioate)]",Mean % editing in rat liver,,2.0%
"CCCCCCCCC(CCCCCCCC)OC(=O)CCCCCCC(=O)OCC(COC(=O)CCCCCCC(=O)OC(CCCCCCCC)CCCCCCCC)COC(=O)OCCCN1CCCC1 [Compound 65, 8,8′-di(heptadecan-9-yl) O′1,O1-(2-((((3-(pyrrolidin-1-yl)propoxy)carbonyl)oxy)methyl)propane-1,3-diyl) di(octanedioate)]",Mean % editing in rat liver,,4.5%
"CCCCCCCCC(CCCCCCCC)OC(=O)CCCCCCC(=O)OCC(CC)(COC(=O)CCCCCCC(=O)OC(CCCCCCCC)CCCCCCCC)COC(=O)NCCN(CC)CC [Compound 66, O′1,O1-(2-((((2-(diethylamino)ethyl)carbamoyl)oxy)methyl)-2-ethylpropane-1,3-diyl) 8,8′-di(heptadecan-9-yl) di(octanedioate)]",Mean % editing in rat liver,,9.5%
"CCCCCCCCC(CCCCCCCC)OC(=O)CCCCCCC(=O)OCC(CC)(COC(=O)CCCCCCC(=O)OC(CCCCCCCC)CCCCCCCC)COC(=O)OCCCN1CCCC1 [Compound 67, O′1,O1-(2-ethyl-2-((((3-(pyrrolidin-1-yl)propoxy)carbonyl)oxy)methyl)propane-1,3-diyl) 8,8′-di(heptadecan-9-yl) di(octanedioate)]",Mean % editing in rat liver,,1.6%
"CCCCCCCCC(CCCCCCCC)OC(=O)CCCCC(=O)OCC(COC(=O)CCCCC(=O)OC(CCCCCCCC)CCCCCCCC)COC(=O)NCCN(CC)CC [Compound 68, O,O′-(2-((((2-(diethylamino)ethyl)carbamoyl)oxy)methyl)propane-1,3-diyl) di(heptadecan-9-yl) diadipate]",Mean % editing in rat liver,,17.1%
